Assay results as given in patent publication US20160129122A1, “FATTY ACID ANTIVIRAL CONJUGATES AND THEIR USES” (Catabasis Pharmaceuticals, Inc., priority 2011, published 2016).
Where two headings read alike, the source gives them in different places.

Tests used:
NF-κB = NF-κB luciferase reporter assay in LPS-stimulated RAW 264.7 macrophages; assay type: cell-based; settings: Mus musculus
Experimental: RAW 264.7 cells stably expressing a 3×NFkB response element-drive luciferase reporter were seeded into 96 well plates in sera-free medium (Optimem) 18 hours prior to compound application. Compounds of the invention were prepared by first making 100 mM stock solutions in EtOH. […] Cells were then stimulated with 200 ng/ml LPS or vehicle control for 3 hours in the presence of the compounds of the invention. A set of six vehicles was left unstimulated with LPS in order to measure the assay floor. AlamarBlue viability dye (Invitrogen) was added to cells simultaneously with the delivery of LPS (final AlamarBlue concentration of 10%). After the 3 h incubation period with LPS, cell viability was measured by reading fluorescence (excitation 550 nm, emission 595 nm) with a Perkin Elmer Victor V plate reader. Then cell media was aspirated from each well. Luciferase signal was then developed by addition of the Britelite Plus reagent (Perkin Elmer). Luciferase activity was measured with the Perkin Elmer Victor V plate reader. NF-κB activity was expressed as a percent of the vehicle control wells (stimulated with LPS). Compounds were tested at 6 dose point titrations in triplicate to determine IC50 values.

HIV-1IIIB strain = assay: HIV-1 cytoprotection assay (CEM-SS cells, MTS dye reduction); assay type: cell-based
[1] = RAW264.7, read-out: NF-kB inhibitory activity IC50 μM
[2] = Human immunodeficiency virus 1, IIIB, CEM-SS, 144 h, read-out: IC50 HIV-1IIIB strain (nM)
[3] = RAW264.7, RAW 264.7 cells with 3×NFkB response element luciferase reporter, 2 h pretreatment, 200 ng/ml LPS for 3 h, read-out: NF-kB inhibitory activity IC50
[4] = Human immunodeficiency virus 1, 144 h, CEM-SS cells, HIV-1 IIIB strain, 6 days incubation, cytoprotection by MTS, read-out: IC50 HIV-1IIIB strain

IC50 (NF-κB; [3]) [µM]	IC50 (HIV-1IIIB strain; [4]) [nM]	Compound	IC50 (NF-κB; [1]) [µM]	IC50 (HIV-1IIIB strain; [2]) [nM]
–	–	C=C1[C@H](COP(=O)(NCCNC(=O)CCC/C=C\C/C=C\C/C=C\C/C=C\C/C=C\CC)OC)[C@@H](O)C[C@@H]1n1cnc2c(=O)nc(N)[nH]c21 (stereo partly drawn) [II-48, ((1R,3S,5S)-3-(2-amino-6-oxo-3H-purin-9(6H)-yl)-5-hydroxy-2-methylenecyclopentyl)methyl methyl (2-((5Z,8Z,11Z,14Z,17Z)-icosa-5,8,11,14,17-pentaenamido)ethyl)phosphoramidate]	50 to 200	–
–	–	CC/C=C\C/C=C\C/C=C\C/C=C\C/C=C\CCCC(=O)NCCNP(=O)(OC)OC[C@@H]1O[C@H](n2ccc(N)nc2=O)CS1 (stereo partly drawn) [II-70, ((2R,5S)-5-(4-amino-2-oxopyrimidin-1(2H)-yl)-1,3-oxathiolan-2-yl)methyl methyl (2-((5Z,8Z,11Z,14Z,17Z)-icosa-5,8,11,14,17-pentaenamido)ethyl)phosphoramidate]	50 to 200	–
–	–	CC/C=C\C/C=C\C/C=C\C/C=C\C/C=C\CCCC(=O)NCCNP(=O)(OC)OC[C@H]1OC(n2cc(C)c(=O)[nH]c2=O)C[C@@H]1N=[N+]=[N-] (stereo partly shown) [II-30]	< 50	> 100
< 50	> 100	CC/C=C\C/C=C\C/C=C\C/C=C\C/C=C\C/C=C\CCC(=O)NCCNC(=O)OC[C@H]1OC(n2cc(C)c(=O)[nH]c2=O)C[C@@H]1N=[N+]=[N-] (stereo partly shown) [Compound V-5]	–	–
–	–	CC/C=C\C/C=C\C/C=C\C/C=C\C/C=C\C/C=C\CCC(=O)NCCNP(=O)(OC[C@H]1OC(n2cc(C)c(=O)[nH]c2=O)C[C@@H]1N=[N+]=[N-])Oc1ccccc1 (stereo partly shown) [II-25]	< 50	< 100
–	–	CC/C=C\C/C=C\C/C=C\C/C=C\C/C=C\C/C=C\CCC(=O)NCCNC(=O)OC[C@@H]1OC(n2ccc(N)nc2=O)CS1 (stereo partly drawn) [Compound V-21, ((2R,5S)-5-(4-amino-2-oxopyrimidin-1(2H)-yl)-1,3-oxathiolan-2-yl)methyl(2-((4Z,7Z,10Z,13Z,16Z,19Z)-docosa-4,7,10,13,16,19-hexaenamido)ethyl)carbamate]	50 to 200	< 100
> 200	< 100	CC/C=C\C/C=C\C/C=C\C/C=C\C/C=C\C/C=C\CCC(=O)Nc1ccn(C2CS[C@H](CO)O2)c(=O)n1 (stereo partly shown) [Compound V-18]	–	–
–	< 100	CC/C=C\C/C=C\C/C=C\C/C=C\C/C=C\CCCC(=O)Nc1ccc(S(=O)(=O)N(CC(C)C)C[C@@H](O)[C@H](Cc2ccccc2)NC(=O)O[C@H]2CO[C@H]3OCC[C@H]32)cc1 [VII-2, (3R,3aS,6aR)-hexahydrofuro[2,3-b]furan-3-yl((2S,3R)-3-hydroxy-4-(4-((5Z,8Z,11Z,14Z,17Z)-icosa-5,8,11,14,17-pentaenamido)-N-isobutylphenylsulfonamido)-1-phenylbutan-2-yl)carbamate]	–	–
50 to 200	–	CC/C=C\C/C=C\C/C=C\C/C=C\C/C=C\C/C=C\CCC(=O)NCCOCCNC(=O)OC[C@H]1OC(n2cc(C)c(=O)[nH]c2=O)C[C@@H]1N=[N+]=[N-] (stereo partly shown) [Compound V-8]	–	–
–	–	CC(C)CN(C[C@@H](O)[C@H](Cc1ccccc1)NC(=O)O[C@H]1CO[C@H]2OCC[C@H]21)S(=O)(=O)c1ccc(N)cc1 [Darunavir, darunavir, reference compound]	> 200	–
–	–	CC/C=C\C/C=C\C/C=C\C/C=C\C/C=C\C/C=C\CCC(=O)Nc1ccc(S(=O)(=O)N(CC(C)C)C[C@@H](O)[C@H](Cc2ccccc2)NC(=O)O[C@H]2CO[C@H]3OCC[C@H]32)cc1 [VII-1, (3R,3aS,6aR)-hexahydrofuro[2,3-b]furan-3-yl((2S,3R)-4-(4-((4Z,7Z,10Z,13Z,16Z,19Z)-docosa-4,7,10,13,16,19-hexaenamido)-N-isobutylphenylsulfonamido)-3-hydroxy-1-phenylbutan-2-yl)carbamate]	50 to 200	< 100
–	–	CC/C=C\C/C=C\C/C=C\C/C=C\C/C=C\C/C=C\CCC(=O)NCCNP(=O)(OC[C@@H]1O[C@H](n2ccc(N)nc2=O)CS1)Oc1ccccc1 (stereo partly drawn) [II-67, ((2R,5S)-5-(4-amino-2-oxopyrimidin-1(2H)-yl)-1,3-oxathiolan-2-yl)methyl phenyl (2-((4Z,7Z,10Z,13Z,16Z,19Z)-docosa-4,7,10,13,16,19-hexaenamido)ethyl)phosphoramidate]	< 50	< 100
